Data on 26 compounds can be found in PubChem BioAssay (NCI).

Assay in all cases: NCI-60 cell line screen, 48 h
In experiment [1] the test system is SF-268 CNS.
Experiment [2] has as its system A549 NSCLC.
Experiment [3] has as its system HCT-15 colon.
In experiment [4] the test system is 786-0 renal.
For experiment [5], the system named is M14 melanoma.
For experiment [6], the system named is HCC-2998 colon.
In experiment [7] the test system is OVCAR-4 ovarian.
Experiment [8] relates to HL-60(TB) leukemia.
The subject of experiment [9] is MOLT-4 leukemia.
For experiment [10], the system named is SF-295 CNS.
Experiment [11] relates to RXF 393 renal.

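Where inhibition never reached the appropriate level, the endpoint shown equals the highest concentration tested. Otherwise, values were interpolated linearly from a five-concentration, 48-hour dose response in 96-well plates. Here, GI50 denotes the concentration required for 50% inhibition of growth. At the TGI there is no net growth.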 Where a SMILES comes first, the peptide text is derived from it. The star is where a group is joined. Boc = CC(C)(C)OC(=O)*

For `Cc1ccc2c(c1)-c1nc(N)c(C#N)c(-c3ccccc3)c1CCS2(=O)=O`, the TGI in experiment [1] is above 100 µM; in experiment [2] it was above 100 µM; in [3], above 100 µM; in experiment [4], 44.1 µM; in experiment [5] it was above 100 µM; in experiment [6], above 100 µM. In addition, the TGI in [7] came to 41.8 µM.

Turning to `COC(=O)C(Cc1c[nH]c2ccccc12)NC(=O)C(Cc1c[nH]c2ccccc12)NC(=O)C(Cc1c[nH]c2ccccc12)NC(=O)C(Cc1c[nH]c2ccccc12)NC(=O)C(Cc1c[nH]c2ccccc12)NC(=O)C(Cc1c[nH]c2ccccc12)NC(=O)C(Cc1c[nH]c2ccccc12)NC(=O)C(Cc1c[nH]c2ccccc12)NC(=O)OC(C)(C)C` (centres undefined) (Boc-WWWWWWWW-OMe; configuration not given here), the TGI was above 100 µM in experiment [1]; above 100 µM in experiment [2]; 53.5 µM in [8]; above 100 µM in experiment [3]; above 100 µM in experiment [4]; 25.1 µM in [5]. Further, the TGI in experiment [9], in [6] and in [7] was above 100 µM in each case.

With `Cc1cc(S(=O)(=O)Nc2nc3ccccc3c(=O)n2N)c(S)cc1Cl`, the GI50 in experiment [1] is 7.23 µM. The TGI is 40.1 µM in experiment [1]; above 100 µM in [2]; above 100 µM in [8]; above 100 µM in experiment [3]; 81.6 µM in [4]; above 100 µM in experiment [5]. Besides, the TGI in experiment [9], in experiment [6], in experiment [10] and in [7] was above 100 µM throughout.

Consider `O=C1c2ccccc2C(=O)N1CC(O)COc1cccc2ccccc12` (centres undefined), for which the TGI in experiment [1], in experiment [2], in experiment [8], in experiment [3], in [5] and in [9] was above 100 µM throughout. Besides, the TGI in experiment [6] and in experiment [10] was above 100 µM each time.

For the compound `Cn1c2ccccc2c(=O)c2cccc(C(=O)NC(CCC(N)=O)C(=O)O)c21` (centres undefined), the TGI in experiment [1] was above 100 µM; in [2], above 100 µM; in experiment [8], 0.678 µM; in [3] it was above 100 µM; in experiment [4], above 100 µM; in experiment [5], above 100 µM. Further, the TGI in experiment [9], in [6], in [10] and in experiment [7] was above 100 µM each time.

In the case of `COCN1C(=O)[C@@H]2CCCN2C(=O)c2cc(N)ccc21`, the TGI in experiment [11], in [1], in experiment [2], in experiment [3], in experiment [4] and in [5] was above 100 µM each time. Besides, the TGI in [10] and in experiment [7] was above 100 µM in each case.

As for `CC(=O)Nc1c(C)cc2c(nc3n2CCC3O)c1[N+](=O)[O-]` (centres undefined), the TGI in experiment [1], in experiment [2], in experiment [8], in [3], in experiment [4] and in experiment [5] was above 100 µM throughout. Moreover, the TGI in [9], in experiment [6], in experiment [10] and in experiment [7] was above 100 µM each time.

For `COc1cc(/C=c2\sc3n(c2=O)C(c2ccc(Cl)cc2)C2=C(CCCC2C)N=3)cc(OC)c1OC` (centres undefined), the TGI in [11], in experiment [1], in [2], in experiment [8], in experiment [3] and in experiment [4] was above 100 µM in each case. For the same compound, the TGI in [5] and in experiment [9] was above 100 µM each time.

On to `C=C1CCC([N+](=O)[O-])[C@](C)(N=O)CC[C@@H]2C1CC2(C)C` (some centres undefined), for which the TGI in [1] was above 100 µM; in experiment [2] it was 36 µM; in experiment [8] it was above 100 µM; in experiment [3], 65.4 µM; in experiment [4], 42.6 µM; in experiment [5] it was above 100 µM. The TGI in experiment [9] was above 100 µM; in experiment [10], 37.6 µM; in [7], 84.6 µM.

For `COC(=O)C1(C)C=CC(=O)C2(C)C1C(O)C1OC3CC(c4ccoc4)C(C)=C3C1(C)C2CC(=O)O` (centres undefined), the TGI in experiment [1], in [2], in experiment [8], in [3], in experiment [4] and in experiment [5] was above 100 µM throughout. For the same compound, the TGI in experiment [9], in experiment [6], in [10] and in experiment [7] was above 100 µM each time.

With `CCOC(=O)NC(Nc1ccc(C(=O)OCC)cc1)(C(F)(F)F)C(F)(F)F`, the TGI in experiment [1], in experiment [2], in experiment [8], in experiment [3], in experiment [4] and in [5] was above 100 µM each time. Moreover, the TGI in experiment [9], in experiment [6], in experiment [10] and in experiment [7] was above 100 µM in each case.

For the compound `O=C(O)CN1C(=O)C(Cc2ccc(O)cc2)N=C(c2cccc(O)c2)c2ccccc21` (centres undefined), the TGI in experiment [1], in experiment [2], in experiment [8], in experiment [3], in experiment [4] and in [5] was above 100 µM throughout. For the same compound, the TGI in experiment [9], in experiment [10] and in experiment [7] was above 100 µM throughout.

Turning to `NC(=S)N/N=C\c1nccc2ccccc12`, the TGI in experiment [1] is 1.47 µM; in experiment [2], above 100 µM; in [8] it was 40.4 µM; in experiment [3], above 100 µM; in experiment [5] it was 2.42 µM; in experiment [9] it was 0.827 µM. Besides, the TGI in experiment [6] was above 68.4 µM; in [10], 0.781 µM; in experiment [7], 1.2 µM.

In the case of `Oc1ccc2c(c1)-c1c(c3ccccc3n1CCN1CCOCC1)CC2`, the TGI in [11] was above 100 µM; in experiment [1] it was above 100 µM; in [8] it was above 100 µM; in experiment [3], above 100 µM; in experiment [4], above 100 µM; in [5], 88 µM. In addition, the TGI in experiment [9] and in experiment [10] was above 100 µM throughout.

With `O=C(NNC(=S)NC1CCCCC1)c1csc(NC(=S)NC2CCCCC2)n1`, the TGI is 26.3 µM in experiment [1]; 23.3 µM in experiment [2]; above 100 µM in [8]; 14.5 µM in experiment [3]; 19.9 µM in experiment [4]; 16.1 µM in experiment [5]. Further, the TGI in experiment [9] turned out to be 25.5 µM; in experiment [6], 14.5 µM; in experiment [10] it was 19.7 µM.

Consider `COI1NC(=O)c2ccccc21`, for which the TGI in [1], in experiment [2], in [8], in experiment [3], in experiment [4] and in experiment [5] was above 100 µM each time. Further, the TGI in [9], in experiment [10] and in experiment [7] was above 100 µM each time.

Turning to `CC(=O)O[C@H]1[C@H](OC(=O)CC(C)(O)CC(=O)O)C[C@]2(C)C3=C(CCC2C1(C)C)[C@]1(C)CC[C@H]([C@H]2CC[C@H](C(C)(C)O)OC2O)[C@@]1(C)[C@@H](O)C3` (some centres undefined), the TGI is 98 µM in experiment [2]; 36.5 µM in [8]; 34.9 µM in experiment [3]; 37.3 µM in experiment [4]; 33.4 µM in [5]; 40.9 µM in experiment [9]. Besides, the TGI in experiment [6] was 31.7 µM; in experiment [10], 33.9 µM; in experiment [7] it was 37.8 µM.

On to `CC1=C(C)Cc2c(O)ccc(O)c2C1`, for which the TGI came out at 30 µM in experiment [11]; 31.8 µM in experiment [1]; 41.9 µM in experiment [2]; 23.5 µM in [8]; 33.1 µM in experiment [3]; 30 µM in experiment [5]. The TGI was 97.2 µM in [9] and above 100 µM in experiment [10].

On to `Cc1ccccc1S(=O)(=O)Nn1cnc2ccc(S(=O)(=O)Nc3ccc(Cl)cc3)cc2c1=O`, for which the TGI in experiment [1], in experiment [2], in experiment [8], in experiment [3], in [4] and in [5] was above 100 µM each time. Besides, the TGI in experiment [9], in experiment [6], in experiment [10] and in experiment [7] was above 100 µM in each case.

With `Oc1ccc(-c2nc3ccc(Cl)cc3s2)cc1`, the TGI in experiment [11] was 44 µM; in experiment [1], 33.8 µM; in [2], 45.2 µM; in [8] it was 57.7 µM; in experiment [3], 31.1 µM; in experiment [5] it was above 100 µM. Moreover, the TGI is above 100 µM in experiment [9] and 34.1 µM in experiment [10].

For `O=C1CSC(c2cccc([N+](=O)[O-])c2)N1c1ccc(-n2c(-c3ccccc3)nc3ccccc3c2=O)cc1` (centres undefined), the TGI in experiment [1], in experiment [2], in experiment [8], in experiment [3], in experiment [4] and in experiment [5] was above 100 µM throughout. In addition, the TGI in [9], in experiment [6], in experiment [10] and in experiment [7] was above 100 µM throughout.

As to `COc1cc2c(cc1OCCCC(=O)Nc1ccc3ccc4cccc5ccc1c3c45)N=C[C@@H]1CCCN1C2=O`, the GI50 was 0.27 µM in experiment [1]; below 0.021 µM in experiment [2]; 0.169 µM in [3]; below 0.01 µM in experiment [5]; 0.0987 µM in experiment [9]; below 0.01 µM in experiment [6]. Further, the results for the GI50 in [10] and in experiment [7] were 0.217 µM and below 0.01 µM, respectively. Further, the TGI was 0.864 µM in experiment [1]; above 100 µM in experiment [3]; below 0.01 µM in experiment [5]; 0.355 µM in experiment [9]; below 0.0157 µM in experiment [6]; 1.08 µM in experiment [10]. This compound displayed a TGI in experiment [7] of 10.1 µM.

In the case of `OC(c1cc(C23CC4CC(CC(C4)C2)C3)nc2c(Cl)cc(Cl)cc12)C1CCCCN1` (centres undefined), the TGI in experiment [11] was determined as 3.07 µM; in [1] it was 3.25 µM; in [2], 3.08 µM; in experiment [8], 3.59 µM; in experiment [4], 3.21 µM; in experiment [5], 3.13 µM. The TGI was determined as 3.57 µM in experiment [9] and 3.76 µM in experiment [10].

On to `COc1ccccc1C(=O)c1c(NCc2ccccc2)c(=O)c1=O`, for which the TGI in [1] is above 100 µM; in experiment [8], above 100 µM; in [3] it was above 100 µM; in experiment [4] it was above 100 µM; in experiment [5], above 100 µM; in [9], 83.3 µM. Further, the TGI in experiment [6], in experiment [10] and in experiment [7] was above 100 µM throughout.

With `C=C1C2C[C@@H]3O[C@H]4C[C@H]5O[C@@]6(C[C@@H]7O[C@]8(C[C@H](C)[C@@H]9O[C@@H]%10CC(CO)O[C@@H]%10C[C@@H]9O8)C[C@H](C)[C@@H]7O6)C[C@H]5O[C@H]4[C@H](C)[C@H]3OC(=O)C[C@H]3CC[C@@H]4OC5[C@H]6O[C@]7(CC[C@H]8CC(=C)[C@H](CC[C@@H](C[C@H]1C)O2)O8)CC6O[C@@H]5[C@@H](O7)[C@H]4O3` (some centres undefined), the TGI in experiment [11] was above 1 µM; in [1], above 0.874 µM; in experiment [2], 0.408 µM; in experiment [4] it was above 0.413 µM; in experiment [5] it was above 1 µM; in [9], above 1 µM. Also, the TGI in experiment [10] and in experiment [7] was above 1 µM in each case.

Turning to `CCC(C#N)NCc1cccc(CNC(C#N)CC)c1` (centres undefined), the TGI in experiment [1] was above 100 µM; in [2], above 100 µM; in [8], above 100 µM; in experiment [3] it was above 100 µM; in experiment [4] it was above 100 µM; in [5], 31.4 µM. The TGI in experiment [9] is above 100 µM; in experiment [6], above 100 µM; in experiment [10], 33.7 µM; in experiment [7] it was above 100 µM.
